In PubChem BioAssay AID330 (DTP/NCI, 2004):
Several values for one entry are separate records, joined by “and”; a condition that tells them apart may be missing. Identical values can stand only once. Toxic doses and inconclusive results are not listed. How the source made its calls: active means survival T/C of 150% or more; inactive means T/C below 125% in these data.

Tested on: P388 leukemia ip, CD2F1 mice, survival T/C
Assay: NCI In Vivo Anticancer Drug Screen. Data for tumor model P388 Leukemia (intraperitoneal) in CD2F1 (CDF1) mice
Settings: endpoint: median survival time, higher = longer survival
How it was run: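 Mice carrying the transplanted tumor received test compound or vehicle. Survival was recorded in each group, and the value is the treated-group measurement divided by that of the vehicle-treated control group.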

[1] = dose: 60.0 mg/kg/injection, schedule: Q01DX005 (ip), vehicle: saline with Tween-80
[2] = dose: 120.0 mg/kg/injection, schedule: Q01DX005 (ip), vehicle: saline with Tween-80
[3] = dose: 240.0 mg/kg/injection, schedule: Q01DX005 (ip), vehicle: saline with Tween-80
[4] = dose: 50.0 mg/kg/injection, schedule: Q01DX005 (ip), vehicle: Klucel (hydroxypropylcellulose) (HPC)
[5] = dose: 100.0 mg/kg/injection, schedule: Q01DX005 (ip), vehicle: Klucel (hydroxypropylcellulose) (HPC)
[6] = dose: 200.0 mg/kg/injection, schedule: Q01DX005 (ip), vehicle: Klucel (hydroxypropylcellulose) (HPC)
[7] = dose: 100.0 mg/kg/injection, schedule: Q01DX005 (ip), vehicle: saline with Tween-80
[8] = dose: 200.0 mg/kg/injection, schedule: Q01DX005 (ip), vehicle: saline with Tween-80
[9] = dose: 50.0 mg/kg/injection, schedule: Q01DX009 (ip), vehicle: saline with Tween-80
[10] = dose: 100.0 mg/kg/injection, schedule: Q01DX009 (ip), vehicle: saline with Tween-80
[11] = dose: 200.0 mg/kg/injection, schedule: Q01DX009 (ip), vehicle: saline with Tween-80
[12] = dose: 12.5 mg/kg/injection, schedule: Q01DX005 (ip), vehicle: Klucel (hydroxypropylcellulose) (HPC)
[13] = dose: 25.0 mg/kg/injection, schedule: Q01DX005 (ip), vehicle: Klucel (hydroxypropylcellulose) (HPC)
[14] = dose: 12.5 mg/kg/injection, schedule: Q01DX009 (ip), vehicle: saline
[15] = dose: 25.0 mg/kg/injection, schedule: Q01DX009 (ip), vehicle: saline
[16] = dose: 100.0 mg/kg/injection, schedule: Q01DX009 (ip), vehicle: saline
[17] = dose: 50.0 mg/kg/injection, schedule: Q01DX005 (ip), vehicle: saline with Tween-80

Measured: T/C

CC(=O)C(=O)c1ccc(O)cc1
inactive: dose: 10.0 mg/kg/injection, schedule: Q01DX009 (ip), vehicle: saline with Tween-80 96 % of control | dose: 20.0 mg/kg/injection, schedule: Q01DX009 (ip), vehicle: saline with Tween-80 94 % of control | dose: 40.0 mg/kg/injection, schedule: Q01DX009 (ip), vehicle: saline with Tween-80 99 % of control

Cc1ccc(O)c(C(c2ccc3c(c2)OCO3)N2CCOCC2)c1 (stereo not given)
inactive: [1] 101 % of control | [2] 100 % of control | [3] 97 % of control

COc1ccc(C2=C(Cl)C(=O)N(c3cccc(Cl)c3)C(=O)C2(Cl)Cl)cc1
inactive: dose: 100.0 mg/kg/injection, schedule: Q04DX002 (ip), vehicle: Klucel (hydroxypropylcellulose) (HPC) 100 % of control and 86 % of control (2×) | dose: 200.0 mg/kg/injection, schedule: Q04DX002 (ip), vehicle: Klucel (hydroxypropylcellulose) (HPC) 104 % of control and 91 % of control and 97 % of control | dose: 400.0 mg/kg/injection, schedule: Q04DX002 (ip), vehicle: Klucel (hydroxypropylcellulose) (HPC) 100 % of control and 122 % of control and 90 % of control | dose: 600.0 mg/kg/injection, schedule: Q04DX002 (ip), vehicle: Klucel (hydroxypropylcellulose) (HPC) 98 % of control and 109 % of control

CCOC(=O)C1Cc2c([nH]c(=O)[nH]c2=O)OC1c1ccc([N+](=O)[O-])cc1 (stereo not given)
inactive: [4] 97 % of control | [5] 89 % of control | [6] 94 % of control

Cc1nc(C#N)c(=N)n(O)c1Cl
inactive: dose: 6.25 mg/kg/injection, schedule: Q01DX009 (ip), vehicle: saline with Tween-80 99 % of control and 102 % of control and 123 % of control | dose: 12.5 mg/kg/injection, schedule: Q01DX009 (ip), vehicle: saline with Tween-80 104 % of control and 106 % of control | dose: 25.0 mg/kg/injection, schedule: Q01DX009 (ip), vehicle: saline with Tween-80 110 % of control and 113 % of control

C=C1C[C@]23C[C@H](O)[C@]4(O)[C@@]5(C)C[C@H](O)C[C@]46C(C2[C@@H]1[C@@H](OC(=O)/C(C)=C/C)[C@@H](OC(=O)/C(C)=C/C)[C@H]36)N(C)C5 (stereo not given in full)
inactive: dose: 0.5 mg/kg/injection, schedule: Q01DX005 (ip), vehicle: saline + alcohol 102 % of control | dose: 1.0 mg/kg/injection, schedule: Q01DX005 (ip), vehicle: saline + alcohol 105 % of control and 106 % of control | dose: 2.0 mg/kg/injection, schedule: Q01DX005 (ip), vehicle: saline + alcohol 105 % of control and 109 % of control | dose: 4.0 mg/kg/injection, schedule: Q01DX005 (ip), vehicle: saline + alcohol 103 % of control and 109 % of control | dose: 8.0 mg/kg/injection, schedule: Q01DX005 (ip), vehicle: saline + alcohol 103 % of control

Cc1c(O)c(=O)ccn1CCCl
inactive: dose: 50.0 mg/kg/injection, schedule: Q01DX005 (ip), vehicle: saline 104 % of control and 107 % of control | dose: 100.0 mg/kg/injection, schedule: Q01DX005 (ip), vehicle: saline 106 % of control and 107 % of control | dose: 200.0 mg/kg/injection, schedule: Q01DX005 (ip), vehicle: saline 109 % of control and 116 % of control

CN(C)C(CC(N)=O)C(=O)O (stereo not given)
inactive: dose: 50.0 mg/kg/injection, schedule: Q01DX009 (ip), vehicle: water 101 % of control | dose: 100.0 mg/kg/injection, schedule: Q01DX009 (ip), vehicle: water 102 % of control | dose: 200.0 mg/kg/injection, schedule: Q01DX009 (ip), vehicle: water 97 % of control

OC[CH2][Hg][Br]
inactive: dose: 0.37 mg/kg/injection, schedule: Q01DX009 (ip), vehicle: saline 101 % of control | dose: 0.75 mg/kg/injection, schedule: Q01DX009 (ip), vehicle: saline 101 % of control | dose: 1.5 mg/kg/injection, schedule: Q01DX009 (ip), vehicle: saline 101 % of control | dose: 3.0 mg/kg/injection, schedule: Q01DX009 (ip), vehicle: saline 118 % of control | dose: 6.0 mg/kg/injection, schedule: Q01DX009 (ip), vehicle: saline 104 % of control

C[c-]1[c-][c-][c-][c-]1.C[c-]1[c-][c-][c-][c-]1.[C-]#[O+].[C-]#[O+].[C-]#[O+].[C-]#[O+].[C-]#[O+].[C-]#[O+].[Mo].[Mo]
inactive: [7] 98 % of control | [8] 93 % of control

CCC12OCCN1CC(C)O2 (stereo not given)
inactive: [9] 98 % of control | [10] 111 % of control | [11] 113 % of control | dose: 400.0 mg/kg/injection, schedule: Q01DX009 (ip), vehicle: saline with Tween-80 119 % of control

Cc1cc(Cl)c2ccc(N(C)C)cc2n1
inactive: [9] 119 % of control | [10] 112 % of control | [11] 110 % of control

CC(=O)C1(C(C)=O)C2=C(C(=O)C(Cl)=C(Cl)C2=O)N2C=CC=CC21 (stereo not given)
inactive: dose: 100.0 mg/kg/injection, schedule: Q04DX002 (ip), vehicle: saline 102 % of control | dose: 200.0 mg/kg/injection, schedule: Q04DX002 (ip), vehicle: saline 88 % of control

C[N+]1=C(/C=C/Nc2cccc(N/C=C/C3=[N+](C)c4ccccc4C3(C)C)c2)C(C)(C)c2ccccc21
inactive: [12] 97 % of control | [13] 97 % of control | [4] 105 % of control

Cn1c(=O)c2c(nc(CF)n2C)n(C)c1=O
inactive: dose: 100.0 mg/kg/injection, schedule: Q01DX001 (ip), vehicle: saline 92 % of control | dose: 200.0 mg/kg/injection, schedule: Q01DX001 (ip), vehicle: saline 96 % of control

Cn1c(=O)oc2ccc(S(=O)(=O)Nc3ccc(Cl)cc3[N+](=O)[O-])cc21
inactive: dose: 50.0 mg/kg/injection, schedule: Q01DX005 (ip), vehicle: saline + Tween-80 + alcohol 94 % of control | dose: 100.0 mg/kg/injection, schedule: Q01DX005 (ip), vehicle: saline + Tween-80 + alcohol 101 % of control | dose: 200.0 mg/kg/injection, schedule: Q01DX005 (ip), vehicle: saline + Tween-80 + alcohol 102 % of control

CCN=c1cc2sc3cc(NCC)c(C)cc3nc-2cc1C
inactive: [14] 97 % of control | [15] 99 % of control | dose: 50.0 mg/kg/injection, schedule: Q01DX009 (ip), vehicle: saline 101 % of control | [16] 90 % of control

C/C(=C/c1cc(Br)c(O)c(Br)c1)[N+](=O)[O-]
inactive: dose: 6.25 mg/kg/injection, schedule: Q01DX009 (ip), vehicle: saline 100 % of control | [14] 110 % of control and 90 % of control | dose: 12.5 mg/kg/injection, schedule: Q04DX003 (ip), vehicle: saline 106 % of control | [15] 109 % of control and 90 % of control | dose: 25.0 mg/kg/injection, schedule: Q04DX003 (ip), vehicle: saline 100 % of control | dose: 50.0 mg/kg/injection, schedule: Q04DX003 (ip), vehicle: saline 100 % of control | [16] 90 % of control | dose: 100.0 mg/kg/injection, schedule: Q04DX003 (ip), vehicle: saline with Tween-80 98 % of control

O=c1c2[nH]c3ccccc3sc=2c(=O)n1-c1cccc(C(F)(F)F)c1
inactive: [17] 104 % of control | [7] 100 % of control | [8] 101 % of control

CCOC(=O)/C(=C/Nc1ccc(O)cc1)NC(=O)c1ccccc1
inactive: dose: 50.0 mg/kg/injection, schedule: Q01DX009 (ip), vehicle: Klucel (hydroxypropylcellulose) (HPC) 103 % of control and 104 % of control | dose: 100.0 mg/kg/injection, schedule: Q01DX009 (ip), vehicle: Klucel (hydroxypropylcellulose) (HPC) 94 % of control and 97 % of control | dose: 200.0 mg/kg/injection, schedule: Q01DX009 (ip), vehicle: Klucel (hydroxypropylcellulose) (HPC) 118 % of control and 87 % of control | dose: 400.0 mg/kg/injection, schedule: Q01DX009 (ip), vehicle: Klucel (hydroxypropylcellulose) (HPC) 89 % of control

CC(C)c1ccc(C(Cc2ccccc2)N(CCO)CCO)cc1 (stereo not given)
inactive: [12] 105 % of control | [13] 104 % of control | [4] 99 % of control and 91 % of control

Cc1ccccc1CN1CC2=C(CCN(Cc3ccccc3)C2=O)N2CCN=C12
inactive: [17] 96 % of control | [7] 96 % of control | [8] 100 % of control

COC(=O)c1ccc(N=NN(C)CO)cc1
inactive: [1] 97 % of control | [2] 108 % of control | [3] 115 % of control

C=CCCC(C)CC (stereo not given)
inactive: [9] 105 % of control | [10] 103 % of control | [11] 100 % of control

Cn1c(=O)oc2cc(N)c(Br)cc21
inactive: [4] 90 % of control | [5] 92 % of control | [6] 94 % of control
